“And” between values parts separate entries of the source, which are not always exact repeats. Identical values can stand only once. Inconclusive results are not listed.
Tested on: Nude mice, LX-1 lung xenograft intrarenal, tumor weight T/C
Assay: NCI In Vivo Anticancer Drug Screen. Data for tumor model Human Lung LX-1 Xenograft (intrarenal inoculation) in NU/NU BALB/C (nude) mice
Settings: endpoint: mean tumor weight change, higher = larger tumour
Description: The antitumor activity of compounds was measured in mice bearing transplantable tumors. Survival or tumor size were measured and the results are expressed as the measurement made in the treated group (T) divided by the measurement made in the vehicle treated control group (C). The tumor model used in this assay is Human Lung LX-1 Xenograft (intrarenal inoculation) in NU/NU BALB/C (nude) mice

[1] = dose: 300.0 mg/kg/injection, schedule: Q04DX003 (sc), vehicle: saline with Tween-80
[2] = dose: 600.0 mg/kg/injection, schedule: Q04DX003 (sc), vehicle: saline with Tween-80
[3] = dose: 1200.0 mg/kg/injection, schedule: Q04DX003 (sc), vehicle: saline with Tween-80
[4] = dose: 150.0 mg/kg/injection, schedule: Q04DX003 (sc), vehicle: saline
[5] = dose: 300.0 mg/kg/injection, schedule: Q04DX003 (sc), vehicle: saline
[6] = dose: 100.0 mg/kg/injection, schedule: Q01DX010 (sc), vehicle: saline
[7] = dose: 200.0 mg/kg/injection, schedule: Q01DX010 (sc), vehicle: saline
[8] = dose: 400.0 mg/kg/injection, schedule: Q01DX010 (sc), vehicle: saline
[9] = dose: 2400.0 mg/kg/injection, schedule: Q04DX003 (sc), vehicle: saline with Tween-80
[10] = dose: 300.0 mg/kg/injection, schedule: Q04DX003 (sc), vehicle: Klucel (hydroxypropylcellulose) (HPC)
[11] = dose: 600.0 mg/kg/injection, schedule: Q04DX003 (sc), vehicle: Klucel (hydroxypropylcellulose) (HPC)
[12] = dose: 50.0 mg/kg/injection, schedule: Q01DX010 (sc), vehicle: saline

## C=COC(=O)C(Cc1ccccc1)NC(=O)OCc1ccccc1 (configuration not stated)
[1]
  T/C: 114 % of control
[2]
  T/C: 118 % of control
[3]
  T/C: 104 % of control

## N=C(N)c1ccc(/C=C/c2ccc(C(=N)N)cc2O)cc1
dose: 37.5 mg/kg/injection, schedule: Q04DX003 (sc), vehicle: water
  T/C: 86 % of control
dose: 75.0 mg/kg/injection, schedule: Q04DX003 (sc), vehicle: water
  T/C: 56 % of control
dose: 150.0 mg/kg/injection, schedule: Q04DX003 (sc), vehicle: water
  T/C: 101 % of control
dose: 300.0 mg/kg/injection, schedule: Q04DX003 (sc), vehicle: water
  T/C: 43 % of control

## CC(O)CCC(=O)c1ccoc1 (configuration not stated)
dose: 15.0 mg/kg/injection, schedule: Q01DX010 (ip), vehicle: saline
  T/C: 75 % of control
dose: 30.0 mg/kg/injection, schedule: Q01DX010 (ip), vehicle: saline
  T/C: 121 % of control

## Nc1ccc(Cn2ccc3c4c(N)nc(N)nc4ccc32)cc1
dose: 9.38 mg/kg/injection, schedule: Q04DX003 (sc), vehicle: saline with Tween-80
  T/C: 68 % of control
dose: 18.75 mg/kg/injection, schedule: Q04DX003 (sc), vehicle: saline with Tween-80
  T/C: 51 % of control
dose: 37.5 mg/kg/injection, schedule: Q04DX003 (sc), vehicle: saline with Tween-80
  T/C: 52 % of control

## S=P(N1CC1)(N1CC1)N1CC1
dose: 4.0 mg/kg/injection, schedule: Q01DX010 (sc), vehicle: saline
  T/C: 77 % of control

## OC1(CSc2ccccc2)CCCCC1
dose: 200.0 mg/kg/injection, schedule: Q04DX003 (sc), vehicle: saline with Tween-80
  T/C: 75 % of control
dose: 400.0 mg/kg/injection, schedule: Q04DX003 (sc), vehicle: saline with Tween-80
  T/C: 85 % of control
dose: 800.0 mg/kg/injection, schedule: Q04DX003 (sc), vehicle: saline with Tween-80
  T/C: 82 % of control
dose: 1600.0 mg/kg/injection, schedule: Q04DX003 (sc), vehicle: saline with Tween-80
  T/C: 90 % of control

## O=C1CCC(=O)N1CO
[4]
  T/C: 95 % of control
[5]
  T/C: 93 % of control
dose: 600.0 mg/kg/injection, schedule: Q04DX003 (sc), vehicle: saline
  T/C: 82 % of control
dose: 1200.0 mg/kg/injection, schedule: Q04DX003 (sc), vehicle: saline
  T/C: 63 % of control

## CN1c2c(nc(N)[nH]c2=O)NCC1CCNc1ccc(C(=O)NC(CCC(=O)O)C(=O)O)cc1 (configuration not stated)
[6]
  T/C: 56 % of control
[7]
  T/C: 28 % of control
[8]
  T/C: 49 % of control
dose: 800.0 mg/kg/injection, schedule: Q01DX010 (sc), vehicle: saline
  T/C: 34 % of control

## CC(=Nc1ccccc1)C1=C(O)C(Cc2ccccc2)NC1=O (configuration not stated)
[1]
  T/C: 52 % of control
[2]
  T/C: 32 % of control
[3]
  T/C: 40 % of control
[9]
  T/C: 30 % of control

## Cc1c(CNc2ccc(C(=O)NC(CC(=O)O)C(=O)O)cc2)ccc2nc(N)nc(N)c12 (configuration not stated)
dose: 12.5 mg/kg/injection, schedule: Q04DX003 (sc), vehicle: saline with Tween-80
  T/C: 100 % of control
dose: 25.0 mg/kg/injection, schedule: Q04DX003 (sc), vehicle: saline with Tween-80
  T/C: 71 % of control
dose: 50.0 mg/kg/injection, schedule: Q04DX003 (sc), vehicle: saline with Tween-80
  T/C: 32 % of control

## CCC12C[N+]3([O-])CCc4c([nH]c5ccccc45)C(C(=O)OC)(c4cc5c(cc4OC)N(C)C4C(O)(C(=O)OC)C(OC(C)=O)C6(CC)C=CCN7CCC54C76)CC(C3)C1O2 (configuration not stated)
dose: 40.0 mg/kg/injection, schedule: Q04DX003 (sc), vehicle: water
  T/C: 64 % of control
dose: 80.0 mg/kg/injection, schedule: Q04DX003 (sc), vehicle: water
  T/C: 86 % of control
dose: 160.0 mg/kg/injection, schedule: Q04DX003 (sc), vehicle: water
  T/C: 93 % of control
dose: 320.0 mg/kg/injection, schedule: Q04DX003 (sc), vehicle: water
  T/C: 93 % of control

## O=CNCO
dose: 250.0 mg/kg/injection, schedule: Q01DX010 (sc), vehicle: water
  T/C: 72 % of control
dose: 500.0 mg/kg/injection, schedule: Q01DX010 (sc), vehicle: water
  T/C: 87 % of control
dose: 1000.0 mg/kg/injection, schedule: Q01DX010 (sc), vehicle: water
  T/C: 100 % of control
dose: 2000.0 mg/kg/injection, schedule: Q01DX010 (sc), vehicle: water
  T/C: 80 % of control

## CN(N=O)C(=O)N[C@@H](C=O)[C@@H](O)[C@H](O)[C@H](O)CO
[4]
  T/C: 40 % of control
[5]
  T/C: 4 % of control

## NC(=O)/C=C/C(=O)c1c(Cl)cccc1Cl
dose: 9.0 mg/kg/injection, schedule: Q04DX003 (sc), vehicle: saline with Tween-80
  T/C: 83 % of control
dose: 18.0 mg/kg/injection, schedule: Q04DX003 (sc), vehicle: saline with Tween-80
  T/C: 79 % of control

## CCC(C(=O)O)C(=O)O.[NH-]CC1CCCC[N-]1.[Pt+2]
dose: 100.0 mg/kg/injection, schedule: Q04DX003 (sc), vehicle: saline
  T/C: 114 % of control
dose: 200.0 mg/kg/injection, schedule: Q04DX003 (sc), vehicle: saline
  T/C: 90 % of control
dose: 400.0 mg/kg/injection, schedule: Q04DX003 (sc), vehicle: saline
  T/C: 60 % of control

## Nc1ccn(C2OC(CO)C(O)C2O)c(=O)n1 (configuration not stated)
dose: 15.63 mg/kg/injection, schedule: Q01DX010 (sc), vehicle: water
  T/C: 56 % of control
dose: 31.25 mg/kg/injection, schedule: Q01DX010 (sc), vehicle: water
  T/C: 91 % of control
dose: 62.5 mg/kg/injection, schedule: Q01DX010 (sc), vehicle: water
  T/C: 55 % of control
dose: 125.0 mg/kg/injection, schedule: Q01DX010 (sc), vehicle: water
  T/C: 2 % of control
dose: 500.0 mg/kg/injection, schedule: Q04DX003 (sc), vehicle: saline
  T/C: 87 % of control
dose: 1000.0 mg/kg/injection, schedule: Q04DX003 (sc), vehicle: saline
  T/C: 61 % of control

## CC(CN1CC(=O)NC(=O)C1)N1CC(=O)NC(=O)C1 (configuration not stated)
dose: 150.0 mg/kg/injection, schedule: Q04DX003 (sc), vehicle: Klucel (hydroxypropylcellulose) (HPC)
  T/C: 88 % of control
[10]
  T/C: 94 % of control
[11]
  T/C: 45 % of control

## CNC(=O)O/N=C(\CN=[N+]=[N-])C(C)(C)C
dose: 1.25 mg/kg/injection, schedule: Q04DX003 (sc), vehicle: saline
  T/C: 73 % of control

## CN(C)N=Nc1ccc(C(=O)O)cc1
dose: 50.0 mg/kg/injection, schedule: Q04DX003 (ip), vehicle: saline
  T/C: 2 % of control and 4 % of control
dose: 400.0 mg/kg/injection, schedule: Q04DX003 (ip), vehicle: saline
  T/C: -62 % of control and -40 % of control

## Nc1cc2[nH]cnc2c(=O)[nH]1
dose: 25.0 mg/kg/injection, schedule: Q01DX010 (sc), vehicle: saline
  T/C: 75 % of control
[12]
  T/C: 89 % of control

## CC1(C)CC2(C)OC2C2(C1)N=NC(=Nc1ccccc1)O2 (configuration not stated)
[1]
  T/C: 104 % of control
[2]
  T/C: 61 % of control
[3]
  T/C: 91 % of control

## O=[N+]([O-])O.O=[N+]([O-])O.[NH-]C1CCCCC1[NH-].[Pt+2] (configuration not stated)
dose: 0.5 mg/kg/injection, schedule: Q01DX010 (sc), vehicle: dextrose
  T/C: 76 % of control
dose: 1.0 mg/kg/injection, schedule: Q01DX010 (sc), vehicle: dextrose
  T/C: 80 % of control

## CNNCc1ccc(C(=O)NC(C)C)cc1
dose: 50.0 mg/kg/injection, schedule: Q01DX010 (ip), vehicle: saline
  T/C: -66 % of control
[12]
  T/C: 2 % of control and 11 % of control
dose: 100.0 mg/kg/injection, schedule: Q01DX010 (ip), vehicle: saline
  T/C: -100 % of control
[6]
  T/C: 8 % of control
dose: 166.66 mg/kg/injection, schedule: Q04DX003 (sc), vehicle: saline
  T/C: 5 % of control
[7]
  T/C: -71 % of control
dose: 333.33 mg/kg/injection, schedule: Q04DX003 (sc), vehicle: saline
  T/C: -38 % of control
[8]
  T/C: -65 % of control
dose: 666.65 mg/kg/injection, schedule: Q04DX003 (sc), vehicle: saline
  T/C: -14 % of control

## CC(/C=C/c1ccccc1)=Nc1ccccc1
[1]
  T/C: 63 % of control
[2]
  T/C: 108 % of control
[3]
  T/C: 83 % of control
[9]
  T/C: 100 % of control

## Cc1ccc(S(=O)(=O)NC(=O)C2C(=O)CC3(CCCCC3)CC2=O)cc1
[10]
  T/C: 122 % of control
[11]
  T/C: 101 % of control
dose: 2400.0 mg/kg/injection, schedule: Q04DX003 (sc), vehicle: Klucel (hydroxypropylcellulose) (HPC)
  T/C: 84 % of control

From PubChem BioAssay AID266 (DTP/NCI, 2004)
